The results in this text go back to ChEMBL document CHEMBL3217647, “Prospective use of molecular field points in ligand-based virtual screening: efficient identification of new reversible Cdc25 inhibitors” (Medchemcomm, 2013).

In test [1] the target is T1, Dual specificity protein phosphatase 3 (Homo sapiens, UniProt P51452). Put plainly: Inhibition of human His-tagged VHR phosphatase activity assessed as fluorescence by BMG plate reader in the absence of detergent.
Test [2] addresses T2, M-phase inducer phosphatase 3 (Homo sapiens, UniProt P30307).
T2 sequence (P30307 whole entry): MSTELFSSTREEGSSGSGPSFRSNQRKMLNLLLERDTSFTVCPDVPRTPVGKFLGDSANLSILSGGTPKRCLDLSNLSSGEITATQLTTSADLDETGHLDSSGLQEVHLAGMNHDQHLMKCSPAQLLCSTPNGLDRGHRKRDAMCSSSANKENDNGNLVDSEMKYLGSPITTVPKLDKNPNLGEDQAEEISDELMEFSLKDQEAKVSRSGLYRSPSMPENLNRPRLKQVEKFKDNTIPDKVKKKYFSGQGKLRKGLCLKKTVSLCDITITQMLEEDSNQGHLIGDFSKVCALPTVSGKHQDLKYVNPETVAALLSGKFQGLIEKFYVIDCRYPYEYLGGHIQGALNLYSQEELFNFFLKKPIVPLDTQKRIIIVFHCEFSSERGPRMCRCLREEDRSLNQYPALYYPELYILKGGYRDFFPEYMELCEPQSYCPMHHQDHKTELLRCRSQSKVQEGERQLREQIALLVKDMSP
The experiment in a line: Inhibition of Cdc25C (unknown origin) phosphatase activity assessed as fluorescence by BMG plate reader in the absence of detergent.

Test [3] concerns the target T3, M-phase inducer phosphatase 2 (Homo sapiens, UniProt P30305).
T3 sequence (P30305 whole entry): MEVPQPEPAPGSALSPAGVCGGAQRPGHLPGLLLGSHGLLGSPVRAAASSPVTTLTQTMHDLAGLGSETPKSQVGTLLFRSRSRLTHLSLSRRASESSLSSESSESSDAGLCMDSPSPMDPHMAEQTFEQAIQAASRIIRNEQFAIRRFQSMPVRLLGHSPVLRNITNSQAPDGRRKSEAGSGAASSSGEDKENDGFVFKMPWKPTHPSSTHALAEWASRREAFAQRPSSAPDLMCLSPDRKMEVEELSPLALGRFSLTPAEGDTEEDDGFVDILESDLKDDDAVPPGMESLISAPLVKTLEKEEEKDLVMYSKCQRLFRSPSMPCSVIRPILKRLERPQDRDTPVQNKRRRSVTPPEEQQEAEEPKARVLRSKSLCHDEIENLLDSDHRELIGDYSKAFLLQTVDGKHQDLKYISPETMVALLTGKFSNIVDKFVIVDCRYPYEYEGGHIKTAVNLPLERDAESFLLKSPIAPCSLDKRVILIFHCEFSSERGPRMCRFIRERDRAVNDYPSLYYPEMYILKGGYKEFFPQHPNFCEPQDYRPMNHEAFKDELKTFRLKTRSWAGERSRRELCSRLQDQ
Put plainly: Inhibition of Cdc25B (unknown origin) phosphatase activity assessed as fluorescence by BMG plate reader in the absence of detergent.

Test [4] addresses T4, M-phase inducer phosphatase 1 (Homo sapiens, UniProt P30304).
T4 sequence (P30304 whole entry): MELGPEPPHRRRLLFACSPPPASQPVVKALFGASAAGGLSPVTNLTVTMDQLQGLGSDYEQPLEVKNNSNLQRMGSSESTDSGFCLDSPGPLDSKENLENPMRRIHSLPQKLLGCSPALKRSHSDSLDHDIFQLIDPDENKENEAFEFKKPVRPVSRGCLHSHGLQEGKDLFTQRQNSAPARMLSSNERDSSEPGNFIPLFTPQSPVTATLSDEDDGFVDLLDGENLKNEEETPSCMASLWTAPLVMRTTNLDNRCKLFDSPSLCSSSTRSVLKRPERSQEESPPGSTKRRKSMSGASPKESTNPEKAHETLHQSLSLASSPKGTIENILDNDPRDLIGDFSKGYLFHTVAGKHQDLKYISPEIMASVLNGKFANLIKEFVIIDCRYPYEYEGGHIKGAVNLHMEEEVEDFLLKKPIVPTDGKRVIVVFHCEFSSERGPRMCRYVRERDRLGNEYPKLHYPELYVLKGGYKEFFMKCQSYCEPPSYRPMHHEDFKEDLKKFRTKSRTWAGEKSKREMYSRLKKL
Put plainly: Inhibition of Cdc25A (unknown origin) phosphatase activity assessed as fluorescence by BMG plate reader in the absence of detergent.

The species named for test [5] is Homo sapiens. Put plainly: Inhibition of alkaline phosphatase (unknown origin) phosphatase activity assessed as fluorescence at 100 uM by BMG plate reader in the presence of 0.005% Tween-20.
The species named for test [6] is Homo sapiens. The experiment in a line: Inhibition of MKP-5/p38 (unknown origin) phosphatase activity assessed as fluorescence at 100 uM by BMG plate reader in the presence of 0.005% Tween-20.
In test [7] the target is T1, Dual specificity protein phosphatase 3. The experiment in a line: Inhibition of human His-tagged VHR phosphatase activity assessed as fluorescence by BMG plate reader in the presence of 0.005% Tween-20.
Test [8] deals with T2, M-phase inducer phosphatase 3. The experiment in a line: Inhibition of Cdc25C (unknown origin) phosphatase activity assessed as fluorescence by BMG plate reader in the presence of 0.005% Tween-20.
Test [9] deals with T3, M-phase inducer phosphatase 2. The experiment in a line: Inhibition of Cdc25B (unknown origin) phosphatase activity assessed as fluorescence by BMG plate reader in the presence of 0.005% Tween-20.
Test [10] addresses T4, M-phase inducer phosphatase 1. The experiment in a line: Inhibition of Cdc25A (unknown origin) phosphatase activity assessed as fluorescence by BMG plate reader in the presence of 0.005% Tween-20.
For test [11], the target named is T5, Tyrosine-protein phosphatase non-receptor type 1 (Homo sapiens) (UniProt P18031).
T5 sequence (whole entry): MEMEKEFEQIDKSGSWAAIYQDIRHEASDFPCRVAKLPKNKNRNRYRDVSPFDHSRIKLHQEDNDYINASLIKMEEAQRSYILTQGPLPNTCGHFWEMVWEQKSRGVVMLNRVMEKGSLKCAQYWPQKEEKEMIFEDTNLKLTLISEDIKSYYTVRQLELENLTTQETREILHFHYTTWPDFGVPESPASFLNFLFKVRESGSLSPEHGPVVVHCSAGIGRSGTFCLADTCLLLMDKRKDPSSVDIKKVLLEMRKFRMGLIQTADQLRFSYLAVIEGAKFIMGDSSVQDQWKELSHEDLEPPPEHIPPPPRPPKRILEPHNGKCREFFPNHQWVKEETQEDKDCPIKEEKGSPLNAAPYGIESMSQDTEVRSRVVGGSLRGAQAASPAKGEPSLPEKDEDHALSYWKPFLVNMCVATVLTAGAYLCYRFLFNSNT
The experiment in a line: Inhibition of PTP1B (unknown origin) phosphatase activity assessed as fluorescence at 100 uM by BMG plate reader in the presence of 0.005% Tween-20.

T1 sequence (P51452 whole entry): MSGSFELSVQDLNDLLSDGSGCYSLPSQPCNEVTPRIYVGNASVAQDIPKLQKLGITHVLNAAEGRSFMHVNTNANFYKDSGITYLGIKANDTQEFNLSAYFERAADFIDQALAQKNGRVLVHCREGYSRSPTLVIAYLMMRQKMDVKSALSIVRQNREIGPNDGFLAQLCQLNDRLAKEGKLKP

For `CCOc1ccc(-c2nc(-c3ccc4c(c3)CC(=O)N4C)cs2)cc1`, the IC50 is 10.6 µM in test [1]; above 100 µM in test [2]; 22.7 µM in test [3]; 9.5 µM in [4]; 64.5 µM in test [7]; 47.6 µM in test [8]. The figures for the IC50 in test [9] and in test [10] were 50 µM and 33.6 µM, respectively. The inhibition in test [5], in test [6] and in test [11] was below 50% in each case.

In the case of `COc1ccc(-c2nc(-c3ccc4c(c3)CCN4S(C)(=O)=O)cs2)cc1`, the IC50 in test [1] is 8.1 µM; in test [2], 18 µM; in test [3], 17.5 µM; in test [4] it was 6.5 µM; in test [7], 45.4 µM; in [8], 42.5 µM. The IC50 was 26.1 µM in [9] and 42.9 µM in [10]. For the same compound, the inhibition in [5], in [6] and in [11] was below 50% throughout.
